Results published in patent US9902716B2, “Fluorinated benzofuranyl-pyrimidine derivatives containing a sulfone group” (Bayer Pharma Aktiengesellschaft, priority 2014, dated 2018).

Key:
[1] = target: T1, CDK9/CycT1 (Homo sapiens, UniProt P50750); assay: CDK9/CycT1 kinase assay (Method 1a, TR-FRET); type: biochemical; conditions: 10 μM ATP; for IC50: Method 1a; for Selectivity CDK9 over CDK2: IC50 (CDK2)/IC50 (CDK9): Methods 1a and 2a
T1 construct: Recombinant full-length His-tagged human CDK9 and CycT1; His; purchased Invitrogen PV4131; host or cells: insect cells
Description: 1a. CDK9/CycT1 Kinase Assay:
CDK9/CycT1-inhibitory activity of compounds of the present invention was quantified employing the CDK9/CycT1 TR-FRET assay as described in the following paragraphs:
Recombinant full-length His-tagged human CDK9 and CycT1, expressed in insect cells and purified by Ni-NTA affinity chromatography, were purchased from Invitrogen (Cat. No PV4131). As substrate for the kinase reaction biotinylated peptide biotin-Ttds-YISPLKSPYKISEG (C-terminus in amid form) was used which can be purchased e.g. form the company JERINI Peptide Technologies (Berlin, Germany). For the assay 50 nl of a 100 fold concentrated solution of the test compound in DMSO was pipetted into a black low volume 384 well microtiter plate (Greiner Bio-One, Frickenhausen, Germany), 2 μl of a solution of CDK9/CycT1 in aqueous assay buffer [50 mM Tris/HCl pH 8.0, 10 mM MgCl2, 1.0 mM dithiothreitol, 0.1 mM sodium ortho-vanadate, 0.01% (v/v) Nonidet-P40 (Sigma)] were added and the mixture was incubated for 15 min at 22° C. to allow pre-binding of the test compounds to the enzyme before the start of the kinase reaction. Then the kinase reaction was started by the addition of 3 μl of a solution of adenosine-tri-phosphate (ATP, 16.7 μM=> final conc. in the 5 μl assay volume is 10 μM) and substrate (1.67 μM=> final conc. in the 5 μl assay volume is 1 μM) in assay buffer and the resulting mixture was incubated for a reaction time of 25 min at 22° C. The concentration of CDK9/CycT1 was adjusted depending of the activity of the enzyme lot and was chosen appropriate to have the assay in the linear range, typical concentrations were in the range of 1 μg/mL. The reaction was stopped by the addition of 5 μl of a solution of TR-FRET detection reagents (0.2 μM streptavidine-XL665 [Cisbio Bioassays, Codolet, France] and 1 nM anti-RB(pSer807/pSer811)-antibody from BD Pharmingen [#558389] and 1.2 nM LANCE EU-W1024 labeled anti-mouse IgG antibody [Perkin-Elmer, product no. AD0077]) in an aqueous EDTA-solution (100 mM EDTA, 0.2% (w/v) bovine serum albumin in 100 mM HEPES/NaOH pH 7.0).
The resulting mixture was incubated 1 h at 22° C. to allow the formation of complex between the phosphorylated biotinylated peptide and the detection reagents. Subsequently the amount of phosphorylated substrate was evaluated by measurement of the resonance energy transfer from the Euchelate to the streptavidine-XL. Therefore, the fluorescence emissions at 620 nm and 665 nm after excitation at 350 nm was measured in a HTRF reader, e.g. a Rubystar (BMG Labtechnologies, Offenburg, Germany) or a Viewlux (Perkin-Elmer). The ratio of the emissions at 665 nm and at […] was taken as the measure for the amount of phosphorylated substrate. The data were normalised (enzyme reaction without inhibitor=0% inhibition, all other assay components but no enzyme=100% inhibition).

[2] = tested on: Caco-2 cells; assay: Proliferation assay Caco-2 (Method 3, crystal violet); type: cell-based; conditions: Homo sapiens, 96 h; Caco-2, 4 days incubation; read-out: Inhibition of Caco-2 cell proliferation IC50
Protocol: (§1) Cultivated tumour cells (HeLa, human cervical tumour cells, ATCC CCL-2; NCI-H460, human non-small cell lung carcinoma cells, ATCC HTB-177; A2780, human ovarian carcinoma cells, ECACC #93112519; DU 145, hormone-independent human prostate carcinoma cells, ATCC HTB-81; HeLa-MaTu-ADR, multidrug-resistant human cervical carcinoma cells, EPO-GmbH Berlin; Caco-2, human colorectal carcinoma cells, ATCC HTB-37; B16F10, mouse melanoma cells, ATCC CRL-6475) were plated at a density of 5,000 cells/well (DU145, HeLa-MaTu-ADR), 3,000 cells/well (NCI-H460, HeLa), 2,500 cells/well (A2780), 1,500 cells/well (Caco-2), or 1,000 cells/well (B16F10) in a 96-well multititer plate in 200 μL of their respective growth medium supplemented 10% fetal calf serum. After 24 hours, the cells of one plate (zero-point plate) were stained with crystal violet (see below), while the medium of the other plates was replaced by fresh culture medium (200 μl), to which the test substances were added in various concentrations (0 μM, as well as in the range of 0.001-10 μM; the final concentration of the solvent dimethyl sulfoxide was 0.5%). The cells were incubated for 4 days in the presence of test substances. Cell proliferation was determined by staining the cells with crystal violet: the cells were fixed by adding 20 μl/measuring point of an 11% glutaric aldehyde solution for 15 minutes at room temperature. After three washing cycles of the fixed cells with water, the plates were dried at room temperature. The cells were stained by adding 100 μl/measuring point of a 0.1% crystal violet solution (pH 3.0). After three washing cycles of the stained cells with water, the plates were dried at room temperature. The dye was dissolved by adding 100 μl/measuring point of a 10% acetic acid solution. The extinction was determined by photometry at a wavelength of 595 nm. The change of cell number, in percent, was calculated by normalization of the measured values to the extinction values of the zero-point plate (=0%) and the extinction of the untreated (0 μm) cells (=100%). […]

[3] = tested on: HeLa cells; assay: Proliferation assay HeLa (Method 3, crystal violet); type: cell-based; conditions: Homo sapiens, 96 h, 4 days incubation, read-out: Inhibition of HeLa cell proliferation IC50
Protocol: (§2) Cultivated tumour cells (HeLa, human cervical tumour cells, ATCC CCL-2; NCI-H460, human non-small cell lung carcinoma cells, ATCC HTB-177; A2780, human ovarian carcinoma cells, ECACC #93112519; DU 145, hormone-independent human prostate carcinoma cells, ATCC HTB-81; HeLa-MaTu-ADR, multidrug-resistant human cervical carcinoma cells, EPO-GmbH Berlin; Caco-2, human colorectal carcinoma cells, ATCC HTB-37; B16F10, mouse melanoma cells, ATCC CRL-6475) were plated at a density of 5,000 cells/well (DU145, HeLa-MaTu-ADR), 3,000 cells/well (NCI-H460, HeLa), 2,500 cells/well (A2780), 1,500 cells/well (Caco-2), or 1,000 cells/well (B16F10) in a 96-well multititer plate in 200 μL of their respective growth medium supplemented 10% fetal calf serum. After 24 hours, the cells of one plate (zero-point plate) were stained with crystal violet (see below), while the medium of the other plates was replaced by fresh culture medium (200 μl), to which the test substances were added in various concentrations (0 μM, as well as in the range of 0.001-10 μM; the final concentration of the solvent dimethyl sulfoxide was 0.5%). The cells were incubated for 4 days in the presence of test substances. Cell proliferation was determined by staining the cells with crystal violet: the cells were fixed by adding 20 μl/measuring point of an 11% glutaric aldehyde solution for 15 minutes at room temperature. After three washing cycles of the fixed cells with water, the plates were dried at room temperature. The cells were stained by adding 100 μl/measuring point of a 0.1% crystal violet solution (pH 3.0). After three washing cycles of the stained cells with water, the plates were dried at room temperature. The dye was dissolved by adding 100 μl/measuring point of a 10% acetic acid solution. The extinction was determined by photometry at a wavelength of 595 nm. The change of cell number, in percent, was calculated by normalization of the measured values to the extinction values of the zero-point plate (=0%) and the extinction of the untreated (0 μm) cells (=100%). The IC50 values (inhibitory concentration at 50% of maximal effect) were determined by means of a 4 parameter fit.

[4] = tested on: NCI-H460 cells; assay: Proliferation assay NCI-H460 (Method 3, crystal violet); type: cell-based; conditions: Homo sapiens, 96 h; NCI-H460, 4 days incubation; read-out: Inhibition of NCI-H460 cell proliferation IC50
Protocol: as §2

[5] = tested on: HeLa-MaTu-ADR cells; assay: Proliferation assay HeLa-MaTu-ADR (Method 3, crystal violet); type: cell-based; conditions: Homo sapiens, 96 h, 4 days incubation, read-out: Inhibition of HeLa-MaTu-ADR cell proliferation IC50
Protocol: as §2

[6] = tested on: B16F10 cells; assay: Proliferation assay B16F10 (Method 3, crystal violet); type: cell-based; conditions: Mus musculus, B16-F10, 96 h; B16F10, 4 days incubation; read-out: Inhibition of B16F10 cell proliferation IC50
Protocol: as §2

[7] = tested on: DU145 cells; assay: Proliferation assay DU145 (Method 3, crystal violet); type: cell-based; conditions: Homo sapiens, DU-145, 96 h; DU145, 4 days incubation; read-out: Inhibition of DU145 cell proliferation IC50
Protocol: as §1

T1 sequence (P50750 whole entry): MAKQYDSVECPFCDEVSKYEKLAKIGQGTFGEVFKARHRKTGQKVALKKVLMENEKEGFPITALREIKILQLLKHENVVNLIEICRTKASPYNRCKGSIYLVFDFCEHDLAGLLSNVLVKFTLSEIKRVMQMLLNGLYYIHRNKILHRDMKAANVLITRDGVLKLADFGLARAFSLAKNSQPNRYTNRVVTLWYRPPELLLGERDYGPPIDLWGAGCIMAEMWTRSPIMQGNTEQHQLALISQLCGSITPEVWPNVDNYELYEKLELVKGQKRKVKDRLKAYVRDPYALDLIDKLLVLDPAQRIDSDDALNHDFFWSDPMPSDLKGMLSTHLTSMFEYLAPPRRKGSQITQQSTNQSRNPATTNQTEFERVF
T1 sequence (O60563 whole entry partner): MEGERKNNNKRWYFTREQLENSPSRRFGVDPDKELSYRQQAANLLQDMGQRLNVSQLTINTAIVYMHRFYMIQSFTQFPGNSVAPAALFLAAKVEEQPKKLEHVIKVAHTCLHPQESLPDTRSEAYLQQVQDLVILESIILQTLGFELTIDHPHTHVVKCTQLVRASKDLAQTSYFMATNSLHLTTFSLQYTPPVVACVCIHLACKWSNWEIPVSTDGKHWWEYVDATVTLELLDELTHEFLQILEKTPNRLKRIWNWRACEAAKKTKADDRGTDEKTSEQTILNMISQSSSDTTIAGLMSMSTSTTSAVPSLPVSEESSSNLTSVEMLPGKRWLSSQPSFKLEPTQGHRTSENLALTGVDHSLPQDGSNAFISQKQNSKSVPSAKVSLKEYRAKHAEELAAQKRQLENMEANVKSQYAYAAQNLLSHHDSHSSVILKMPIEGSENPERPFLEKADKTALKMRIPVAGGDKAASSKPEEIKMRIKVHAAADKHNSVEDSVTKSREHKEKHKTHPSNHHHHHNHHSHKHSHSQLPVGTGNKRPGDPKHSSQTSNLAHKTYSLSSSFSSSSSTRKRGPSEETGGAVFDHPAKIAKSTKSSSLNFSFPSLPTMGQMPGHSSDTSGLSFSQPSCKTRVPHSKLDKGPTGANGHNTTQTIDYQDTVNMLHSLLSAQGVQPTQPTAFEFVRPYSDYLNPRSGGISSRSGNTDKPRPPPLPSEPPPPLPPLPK

CS(=O)(=O)Cc1cccc(Nc2ncc(F)c(-c3ccc(F)c4ccoc34)n2)c1 [Example 1, 5-Fluoro-4-(4-fluoro-1-benzofuran-7-yl)-N-{3-[(methylsulfonyl)methyl]-phenyl}pyrimidin-2-amine]
IC50 [1]: 4 nM | Selectivity CDK9 over CDK2: IC50 (CDK2)/IC50 (CDK9) [1]: 44 | IC50 [2]: 300 nM | IC50 [3]: 270 nM | IC50 [4]: 330 nM | IC50 [5]: 290 nM | IC50 [6]: 390 nM | IC50 [7]: 360 nM

CCS(=O)(=O)Cc1cccc(Nc2ncc(F)c(-c3ccc(F)c4ccoc34)n2)c1 [Example 2, N-{3-[(Ethylsulfonyl)methyl]phenyl}-5-fluoro-4-(4-fluoro-1-benzofuran-7-yl)pyrimidin-2-amine]
IC50 [1]: 3 nM | Selectivity CDK9 over CDK2: IC50 (CDK2)/IC50 (CDK9) [1]: 37 | IC50 [3]: 335 nM | IC50 [4]: 114 nM | IC50 [5]: 100 nM | IC50 [6]: 100 nM

Cc1cc(CS(C)(=O)=O)cc(Nc2ncc(F)c(-c3ccc(F)c4ccoc34)n2)c1 [Example 4, 5-Fluoro-4-(4-fluoro-1-benzofuran-7-yl)-N-{3-methyl-5-[(methylsulfonyl)methyl]-phenyl}pyrimidin-2-amine]
IC50 [1]: 2 nM | Selectivity CDK9 over CDK2: IC50 (CDK2)/IC50 (CDK9) [1]: 29 | IC50 [2]: 313 nM | IC50 [3]: 100 nM | IC50 [4]: 146 nM | IC50 [5]: 243 nM | IC50 [6]: 242 nM | IC50 [7]: 237 nM

CS(=O)(=O)Cc1cc(F)cc(Nc2ncc(F)c(-c3ccc(F)c4ccoc34)n2)c1 [Example 3]
IC50 [1]: 2 nM | IC50 [2]: 392 nM | IC50 [3]: 100 nM | IC50 [4]: 230 nM | IC50 [5]: 239 nM | IC50 [6]: 245 nM | IC50 [7]: 298 nM
